Results taken from US10836767B2, “Serum stable pro-coelenterazine analogues” (PROMEGA CORPORATION, priority 2017, dated 2020).
“Also recorded” adds a separate entry of the source.

Columns and labels:
[1] = test system: CMV promoter-NanoLuc® gene transfected HEK293 cells; test: Live cell reporter gene assay, luminescent signal decay over time with/without porcine liver esterase (PLE); format: cell-based; conditions: DMEM, 10% FBS
Procedure: The synthesized pro-coelenterazine or pro-furimazine compounds were evaluated in a live cell reporter gene assay. As shown in FIGS. 3A-C, the luminescent signal decays were monitored over time in HEK293 cells in DMEM media with 10% FBS transfected with 10 ng/well of CMV promoter-NanoLuc® gene with/without adding exogenous esterase porcine liver esterase (PLE) with three representative pro-coelenterazine analogues, e.g. serum instable compound WZ-0308, traditional live cell pro-substrate PBI-4377, and disclosed serum stable compound WZ-0324. The evaluations were performed by the following protocol.
Day 1: Plate cells. HEK293 cells were grown in complete medium (DMEM+10% FBS+1× Non-Essential Amino Acids (NEAA)). The cells were harvested at passasge 6 (˜95% confluent), by a procedure of: washing with DPBS, treating the cells with TrypLE Express until cells dislodged, adding 4× volumes of complete medium, pelleting at 188×g for 2 minutes, and suspending the cells in complete medium to 7.35E4 cells/mL. The cells were plated 100 μL per well into the inner 60 wells of 96-well plates (7,350 cells per well): 100 μL DPBS in the 36 outside wells and 100 μL DPBS between wells. The cells were than incubated overnight at 37° C., 5% CO2.
Day 2: Transfection. Two two master mixes (MM) were made: MM#1: 1.63 μL prep #1; 9.5 μL prep #3; 1.9 mL OM1; and MM#2: 2.9 uL prep #2; 9.5 μL prep #3; 1.9 mL OM1. 35.6 μl FuGENE HD was added to each MM and mixed by pipetting up/down. The mixture was incubated for ˜10 minutes at room temperature. Next, 8 μL of the mixture was added per well using single channel repeater pipette; n=3 per condition. The mixture was then incubated for ˜24 hours at 37° C., 5% CO2.
(§1) Day 3: Live cell assay. Stocks of tested compounds in DMSO (500×) were prepared by serial dilution of 50 mM stock with DMSO. The Medium+/− porcine liver esterase (PLE) at room temperature was prepared by adding 1 and 0.333 ug/ml PLE in CO2 IM+10% FBS. CO2 IM+10% FBS with no added PLE was also prepared. Next, medium+test compound solutions (room temperature) was prepared by the steps of: adding 2 mL of respective medium per channel, adding 4 μL respective tested compound stock per channel and mixing by pipetting up/down 10-15×. The final DMSO concentration was 0.2% v/v. The DMSO solution was dropped to the bottom of the channel, showing precipitation for the higher concentrations. After pipetting up/down, solutions with WZ-0324 at a final concentration of ≥50 uM were noticeably hazy (100 uM>75 uM>50 uM), in some cases even after extended incubation at 37° C. The Solutions were allowed to stand at room temperature for 15-20 minutes prior to addition to cells (P1->P2->P3).
The medium was aspirated and replaced with 200 μL/well of respective medium+tested compound solution. DPBS was added to 200 μL total to outside 36× wells. The system was quickly moved to respective GMM+ to start RLU measurements at 37° C. The measuments were carried out under the following conditions: 1 second integration time; RLU measurement every 15 minutes; the lid was removed for the overnight RLU measurements; and initial RLU measurement would be <37° C. owing to the addition of room temperature medium and cooling of the plate.
Data analysis: average RLU plotted for n=3; error represented as standard deviation was included in each imbedded Prism file, but not shown for the sake of clarity in interpreting the curves.

[2] = Haze (solubility) observation of medium + test compound solutions; format: physicochemical; conditions: for concentration above which haze was observed: medium + compound solution
Procedure: as §1

[3] = test system: HEK 293 cells transiently transfected with SmBiT-PRKACA and LgBiT-PRKAR2A; test: Live cell assay, luminescent signal decay over time in HEK293 cells expressing the PKA NanoBiT pair; format: cell-based; conditions: DMEM, 4% FBS; for strength of signal relative to PBI-4377: concentration above 20 uM; for luminescent signal decay: almost independent of concentration
Procedure: Compounds WZ-0429, WZ-0439, WZ-0454, WZ-0441, WZ-0451. WZ-0416, WZ-0420, WZ-0461 and WZ-0419 were tested in HEK 293 cells transiently transfected plasmid DNA constructs for SmBiT-PRKACA and LgBiT-PRKAR2A expressed via the HSV-TK promoter in DMEM media with 4% FBS, and the luminescent signal decays were monitored over time. […] In contrast, the serum instable compounds, WZ-0429. […] The evaluations of compounds WZ-0429, WZ-0439, WZ-0454, WZ-0441, WZ-0451. WZ-0416, WZ-0420, WZ-0461 and WZ-0419 were performed by the following protocol.
Day 1, plate cells. HEK293 cells were grow in complete medium [DMEM+10% FBS+1× NEAA]. Cells were plated at approximately 10,000 cells per well (100 μL) in 96-well plates (Corning 3917).
Day 2, transient transfection. Plasmid DNA constructs for SmBiT-PRKACA and LgBiT-PRKAR2A expressed via the HSV-TK promoter were diluted to 6.25 ng/μL in Opti-MEM® I and FuGENE HD was added at a 3:1 lipid:DNA ratio. After a 5-10 minute incubation at room temperature, 8 μl of lipid:DNA solution was added per well, and cells were incubated in a 37° C., 5% CO2 incubator overnight.
Day 3, live cell assay. Compounds were dissolved to 50 mM final in DMSO. Compounds were diluted in DMSO to give 33.3, 16.7 and 6.7 mM stocks. DMSO stock solutions were diluted 667-fold in Opti-MEM® I to give 1× solutions. Complete medium was aspirated and replaced with the respective 1× solution containing 75, 50, 25 or 10 uM of the respective compounds (0.15% v/v DMSO final), such as WZ-0429, WZ-0439, WZ-0454, WZ-0441WZ-0451, WZ-0416, WZ-0420 and WZ-0419, but containing 40, 30, 20 or 10 μM as an instead for compound WZ-0461. Luminescence was measured on a GloMax Multi Plus luminometer every 15 minutes at 37° C. using a 1 second integration time.

[4] = Stability test by HPLC in DMSO or DMEM media with or without fetal bovine serum; format: in vitro ADME; conditions: 40 μM; DMEM media with 10% FBS; 10 hours
Procedure: “Serum stability” refers to the stability of a compound in media or culture that includes serum. The serum as used herein may include, but is not limited to, fetal bovine serum (FBS). Serum stability of a compound as used herein generally may be characterized by the extent of degradation of such compound in a serum over a period of time. For example, a compound may degrade by less than 25%, less than 20%, less then 15%, or even less than 10% in FBS over a period of 24 hours or longer. For live cell assays, serum (such as FBS) is a component to maintain cell health. The degree of degradation of the disclosed compounds or the other pro-coelenterazine analogues in DMSO control, or DMEM media with/without FBS, can be monitored by HPLC using specific elution solvent/buffer (e.g. 0.1% TFA and acetonitrile) under the same condition at certain time of points. The percentage of purity can be calculated by the peak area of the tested compound divided by the total peak areas including tested compound and degradation compounds at their corresponding retention time at certain absorbance wavelength (e.g. 260 nm) at certain time point in media with/without FBS. The changes of purity for a given compound over time indicate the degree of instability of the compound in media/culture with/without serum.
The tested compounds were dissolved in DMSO stock at a concentration of 20 mM. […]

[5] = test system: DLD-1 cells; test: Complementary NanoLuc fragment-fused Annexin V real-time apoptosis assay; format: cell-based; conditions: 10,000 DLD-1 cells/well; rhTRAIL; t=3.5, 7, 24 and 30 hr
Text: Small and large fragments of luciferase have been engineered as fusion proteins linked to annexin V for detecting of apoptosis in real-time using a plate-reading luminometer. The individual annexin V-luciferase fragment fusion pairs have low intrinsic affinity for each other, and thus produce no or low luminescence in culture medium or in the presence of non-apoptotic cells; but, when the annexin V-luciferase fragment fusion proteins bind in close proximity to phosphatidylserine exposed on the surface of apoptotic cells, the luciferase fragments reconstitute an active enzyme and generate a luminescent signal.
General protocol for complementary NanoLuc® fragment-fused-Annexin V binding: DLD-1 cells (10,000/well; 100 μL) were plated in medium+10% FBS and 2× CellTox Green in a solid white 96-well plate. After the cells were allowed to attach, 50 μL of recombinant human TRAIL at final concentration 500 ng/ml in medium+10% FBS fortified with 1 mM CaCl2 was added. […] The plate was incubated at 37° C./5% CO2 in a tissue culture incubator, and luminescence and fluorescence (Ex 485/Em 520) was measured kinetically at the indicated time points. […] The kinetically preceded increases in fluorescence of Cytotox Green indicate cell death. […]

SMILES: COCCOCCOCC(C)(C)C(=O)OCOc1c(Cc2ccco2)nc2c(Cc3ccccc3)nc(-c3ccccc3)cn12 [WZ-0324, ((8-benzyl-2-(furan-2-ylmethyl)-6-phenylimidazo[1,2-a]pyrazin-3-yl)oxy)methyl 3-(2-(2-methoxyethoxy)ethoxy)-2,2-dimethylpropanoate]
- luminescence after addition of exogenous PLE esterase versus without PLE ([1]; PLE added): significantly enhanced; also recorded: significantly higher luminescence
- signal in the absence of exogenous PLE esterase, versus PBI-4377 ([1]; no PLE): higher signal
- final concentration at which solutions were noticeably hazy ([2]; CO2 IM + 10% FBS, 0.2% v/v DMSO, after pipetting up/down): ≥ 50 µM
- concentration above which haze was observed [2]: above 70 μM
- concentration above which haze was observed ([2]; listed as WZ-324): > 70 µM

SMILES: COC(C)(C)C(=O)OCOc1c(Cc2ccco2)nc2c(Cc3ccccc3)nc(-c3ccccc3)cn12 [WZ-0451, ((8-benzyl-2-(furan-2-ylmethyl)-6-phenylimidazo[1,2-a]pyrazin-3-yl)oxy)methyl 2-methoxy-2-methylpropanoate]
- strength of signal relative to PBI-4377 [3]: 10 times

SMILES: O=C(OCOc1c(Cc2ccco2)nc2c(Cc3ccccc3)nc(-c3ccccc3)cn12)C1CCCO1 (stereo not drawn) [WZ-0429]
- luminescent signal decay [3]: rapid signal decay

SMILES: O=C(OCOc1c(Cc2ccco2)nc2c(Cc3ccccc3)nc(-c3ccccc3)cn12)c1ccccc1 [WZ-0416, ((8-benzyl-2-(furan-2-ylmethyl)-6-phenylimidazo[1,2-a]pyrazin-3-yl)oxy)methyl benzoate]
- signal strength (brightness) relative to PBI-4377 [3]: comparable or slightly better

SMILES: COC(OC)C(=O)OCOc1c(Cc2ccco2)nc2c(Cc3ccccc3)nc(-c3ccccc3)cn12 [WZ-0454]
- luminescent signal decay [3]: rapid signal decay

SMILES: O=C(OCOc1c(Cc2ccco2)nc2c(Cc3ccccc3)nc(-c3ccccc3)cn12)c1ccoc1 [WZ-0461, ((8-benzyl-2-(furan-2-ylmethyl)-6-phenylimidazo[1,2-a]pyrazin-3-yl)oxy)methyl furan-3-carboxylate]
- signal strength (brightness) relative to PBI-4377 [3]: comparable or slightly better

SMILES: O=C(OCOc1c(Cc2ccco2)nc2c(Cc3ccccc3)nc(-c3ccccc3)cn12)C1CCOC1 (stereo not drawn) [WZ-0439]
- luminescent signal decay [3]: rapid signal decay

SMILES: CC(=O)OCOc1c(Cc2ccco2)nc2c(Cc3ccccc3)nc(-c3ccccc3)cn12 [WZ-0308]
- signal at the initial time point [1]: highest signal
- luminescent signal decay ([1]; FIG. 3A): rapid signal decay
- period of rapid luminescent signal decay ([1]; even without exogenous PLE): 2 to 3 h

SMILES: CC(C)C(=O)OCOc1c(Cc2ccco2)nc2c(Cc3ccccc3)nc(-c3ccccc3)cn12 [WZ-0415]
- degradation (HPLC purity change) [4]: approximately 50%

SMILES: O=C(OCOc1c(Cc2ccco2)nc2c(Cc3ccccc3)nc(-c3ccccc3)cn12)c1ccco1 [WZ-0420, ((8-benzyl-2-(furan-2-ylmethyl)-6-phenylimidazo[1,2-a]pyrazin-3-yl)oxy)methyl furan-2-carboxylate]
- strength of signal relative to PBI-4377 [3]: 10 times

SMILES: COCCOCCOCCOCC(C)(C)C(=O)OCOc1c(Cc2ccco2)nc2c(Cc3ccccc3)nc(-c3ccccc3)cn12 [WZ-0336, ((8-benzyl-2-(furan-2-ylmethyl)-6-phenylimidazo[1,2-a]pyrazin-3-yl)oxy)methyl 13,13-dimethyl-2,5,8,11-tetraoxatetradecan-14-oate]
- luminescence response to TRAIL with the compound as pro-substrate [5]: dose-dependent increases in luminescence

SMILES: C=CCOC(=O)N1CCC(C(=O)OCOc2c(Cc3ccco3)nc3c(Cc4ccccc4)nc(-c4ccccc4)cn23)C1 (stereo not drawn) [WZ-0441]
- luminescent signal decay [3]: rapid signal decay
